Results from patent publication US9193731B2, “Antimicrobial compounds and methods of making and using the same” (Melinta Therapeutics, Inc., priority 2009, dated 2015).

Test system: Escherichia coli strain ATCC25922
Test: standard microdilution assay to determine minimum inhibitory concentrations (MICs)
Format: cell-based
Details: for E. coli ATCC25922 MIC: Escherichia coli strain ATCC25922, microdilution; for MIC: Escherichia coli, ATCC25922, Escherichia coli strain ATCC25922, microdilution, read-out: E. coli ATCC25922 MIC
In short: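 E. coli strain ATCC25922 tested per CLSI microdilution methodology (about 100 microliters per well) to find minimum inhibitory concentrations. Activity scored categorically at a 16 micrograms/ml threshold.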

Compound | E. coli ATCC25922 MIC | MIC [µg/mL]
N=C(N)NCCCNC(=O)c1ccc(-n2cc3cc(-c4ccc(S(=O)(=O)CCCNC5CCNC5)cc4)[nH]c3nc2=O)cc1 (stereo not shown) [Compound 1350] | + (a “+” indicates that the compound has an MIC value of 16 micrograms/ml or less) | 
CNCc1ccc(-n2cc3cc(-c4ccc(S(=O)(=O)N(CCCc5cn[nH]c5)C5CCNCC5)cc4)[nH]c3nc2=O)cc1 [Compound 1351] | − (a “−” indicates that the compound has an MIC value greater than 16 micrograms/ml) | 
CC(C)(CN)COc1cccc(-c2cc3cn(-c4ccc(CNCCCNC(=N)N)c(F)c4)c(=O)nc3[nH]2)c1 [Compound 1361] | + (a “+” indicates that the compound has an MIC value of 16 micrograms/ml or less) | 
N=C(N)NCCCNCc1ccc(-n2cc3cc(-c4cccc(CCCCN)c4)[nH]c3nc2=O)cc1 [Compound 1380] | + (a “+” indicates that the compound has an MIC value of 16 micrograms/ml or less) | 
N=C(N)NCCCNCc1ccc(-n2cc3cc(C4CN(CCCCN)CCO4)[nH]c3nc2=O)cc1 (stereo not shown) [Compound 1381] | + (a “+” indicates that the compound has an MIC value of 16 micrograms/ml or less) | 
N=C(N)NCCCNCc1ccc(-n2cc3cc(-c4cccc(OCC(F)CN)c4)[nH]c3nc2=O)cc1 (stereo not shown) [Compound 1390] | + (a “+” indicates that the compound has an MIC value of 16 micrograms/ml or less) | 
COc1cc(-n2cc3cc(-c4cccc(OCC(F)CN)c4)[nH]c3nc2=O)ccc1CNCCCNC(=N)N (stereo not shown) [Compound 1391] | + (a “+” indicates that the compound has an MIC value of 16 micrograms/ml or less) | 
N=C(N)NCCCNCc1ccc(-n2cc3cc(CCNC4CNC4)[nH]c3nc2=O)cc1 [Compound 1398] | + (a “+” indicates that the compound has an MIC value of 16 micrograms/ml or less) | 
N=C(N)NCCCNC(=O)c1ccc(-n2cc3cc(-c4cccc(OC[C@@H](O)CN)c4)[nH]c3nc2=O)cc1 [Compound 1399] | + (a “+” indicates that the compound has an MIC value of 16 micrograms/ml or less) | 
COC(CN)COc1cccc(-c2cc3cn(-c4ccc(CNCCCNC(=N)N)cc4)c(=O)nc3[nH]2)c1 (stereo not shown) [Compound 1400] | + (a “+” indicates that the compound has an MIC value of 16 micrograms/ml or less) | 
N=C(N)NCCCNCc1ccc(-n2cc3cc(-c4cccc(OCC(F)(F)CN)c4)[nH]c3nc2=O)cc1 [Compound 1404] | − (a “−” indicates that the compound has an MIC value greater than 16 micrograms/ml) | 
N=C(N)NCCCNCc1ccc(-n2cc3cc(-c4cccc(SCCCN)c4)[nH]c3nc2=O)cc1 [Compound 1405] | + (a “+” indicates that the compound has an MIC value of 16 micrograms/ml or less) | 
N=C(N)NCCCNCc1ccc(-n2cc3cc(C4CCCN(C(=O)CCCN)C4)[nH]c3nc2=O)cc1 (stereo not shown) [Compound 1406] | + (a “+” indicates that the compound has an MIC value of 16 micrograms/ml or less) | 
N=C(N)NCCCNC(=O)c1ccc(-n2cc3cc(CCNC4CNC4)[nH]c3nc2=O)cc1 [Compound 1408] | − (a “−” indicates that the compound has an MIC value greater than 16 micrograms/ml) | 
CC(C)(N)CCOc1cccc(-c2cc3cn(-c4ccc(CNCCCNC(=N)N)cc4)c(=O)nc3[nH]2)c1 [Compound 1410] | + (a “+” indicates that the compound has an MIC value of 16 micrograms/ml or less) | 
N=C(N)NCCCNCc1ccc(-n2cc3cc(-c4ccc(C(=O)NC5CNC5)cc4)[nH]c3nc2=O)cc1 [Compound 1412] | + (a “+” indicates that the compound has an MIC value of 16 micrograms/ml or less) | 
N=C(N)NCCCNCc1ccc(-n2cc3cc(-c4cccc(OCC5(CN)CC5)c4)[nH]c3nc2=O)cc1 [Compound 1413] | + (a “+” indicates that the compound has an MIC value of 16 micrograms/ml or less) | 

Compound | E. coli ATCC25922 MIC | MIC [µg/mL]
CC(CCN)Oc1cccc(-c2cc3cn(-c4ccc(CNCCCNC(=N)N)cc4)c(=O)nc3[nH]2)c1 (stereo not shown) [Compound 1414] | + (a “+” indicates that the compound has an MIC value of 16 micrograms/ml or less) | 
N=C(N)NCCC(NCc1ccc(-n2cc3cc(-c4ccc(S(=O)(=O)NC5CNC5)cc4)[nH]c3nc2=O)cc1)C(F)(F)F (stereo not shown) [Compound 1415] | + (a “+” indicates that the compound has an MIC value of 16 micrograms/ml or less) | 
N=C(N)NCC(O)CNCc1ccc(-n2cc3cc(-c4ccc(S(=O)(=O)NC5CNC5)cc4)[nH]c3nc2=O)cc1 (stereo not shown) [Compound 1416] | + (a “+” indicates that the compound has an MIC value of 16 micrograms/ml or less) | 
N=C(N)NCC(O)CNCc1ccc(-n2cc3cc(-c4ccc(S(=O)(=O)NC5CN(C(=N)N)C5)cc4)[nH]c3nc2=O)cc1 (stereo not shown) [Compound 1417] | + (a “+” indicates that the compound has an MIC value of 16 micrograms/ml or less) | 
N=C(N)NCCCNCc1ccc(-n2cc3cc(-c4cccc(OCC5CNC5)c4)[nH]c3nc2=O)cc1 [Compound 1418] | + (a “+” indicates that the compound has an MIC value of 16 micrograms/ml or less) | 
N=C(N)NCCCNCc1ccc(-n2cc3cc(C4CCCN(CC(O)CN)C4)[nH]c3nc2=O)cc1 (stereo not shown) [Compound 1422] | + (a “+” indicates that the compound has an MIC value of 16 micrograms/ml or less) | 
N=C(N)NCCCNCc1ccc(-n2cc3cc(-c4cccc(OC[C@@H]5CCNC5)c4)[nH]c3nc2=O)cc1 [Compound 1423] | + (a “+” indicates that the compound has an MIC value of 16 micrograms/ml or less) | 
CO[C@H](CN)COc1cccc(-c2cc3cn(-c4ccc(CN)cc4)c(=O)nc3[nH]2)c1 [Compound 1428] |  | > 16
N=C(N)NCCCNCc1ccc(-n2cc3cc(-c4ccc(C(NC5CNC5)C(F)(F)F)cc4)[nH]c3nc2=O)cc1 (stereo not shown) [Compound 1431] | + (a “+” indicates that the compound has an MIC value of 16 micrograms/ml or less) | 
N=C(N)NCCCNCc1ccc(-n2cc3cc(-c4ccc(C(NC5CN(C(=N)N)C5)C(F)(F)F)cc4)[nH]c3nc2=O)cc1 (stereo not shown) [Compound 1432] | + (a “+” indicates that the compound has an MIC value of 16 micrograms/ml or less) | 
N=C(N)NCCCNC(=O)c1ccc(-n2cc3cc(-c4cccc(CCCCN)c4)[nH]c3nc2=O)cc1 [Compound 1433] | + (a “+” indicates that the compound has an MIC value of 16 micrograms/ml or less) | 
N=C(N)NCCCNCc1ccc(-n2cc3cc(-c4cccc(OCC5(CN)CCC5)c4)[nH]c3nc2=O)cc1 [Compound 1434] | + (a “+” indicates that the compound has an MIC value of 16 micrograms/ml or less) | 
NCc1ccc(-n2cc3cc(-c4cccc(OCC(F)(F)CN)c4)[nH]c3nc2=O)cc1 [Compound 1436] |  | > 16
N=C(N)NCCCNCc1ccc(-n2cc3cc(C4CCN(CCCCN)C4)[nH]c3nc2=O)cc1 (stereo not shown) [Compound 1437] | + (a “+” indicates that the compound has an MIC value of 16 micrograms/ml or less) | 
N=C(N)NCCCNCc1ccc(-n2cc3cc(-c4cccc(OC[C@H]5CCNC5)c4)[nH]c3nc2=O)cc1 [Compound 1438] | + (a “+” indicates that the compound has an MIC value of 16 micrograms/ml or less) | 
CC(N)CCOc1cccc(-c2cc3cn(-c4ccc(CNCCCNC(=N)N)cc4)c(=O)nc3[nH]2)c1 (stereo not shown) [Compound 1439] | + (a “+” indicates that the compound has an MIC value of 16 micrograms/ml or less) | 
CC(N)CCOc1cccc(-c2cc3cn(-c4ccc(CNCCCNC(=N)N)cc4)c(=O)nc3[nH]2)c1 (stereo not shown) [Compound 1440] | + (a “+” indicates that the compound has an MIC value of 16 micrograms/ml or less) | 
